Measurements from patent US20260286396A1, “AXL KNOCK OUT CAR T CELLS AND METHODS FOR USE THEREOF” (priority 2023, published 2026).

Test system: CART19 cells
Experiment: RNA sequencing of CART19 cells with Ingenuity pathway analysis (pathways, upstream regulators)
Format: cell-based, human
Settings: CART19+JeKo-1, 30 nM TP-0903 vs vehicle, 24 h
Protocol: CART19 cells were isolated using CD4 and CD8 microbeads to […] the JeKo-1 target cells; this isolation step was performed twice to eliminate the possible contamination of JeKo-1 cells. RNA was isolated from the CART19 cells using QIAGEN RNEASY® Plus Mini Kit. RNA was further treated with DNase I (QIAGEN) and purified using RNA Clean & Concentrator (Zymo Research). […] The fastq files were viewed in FastQC to check for quality (Cox et al., Mol Ther., 29 (4): 1529-1540, 2020). After verifying the lack of adapter sequences with FastQC, Cutadapt (Martin, EMBnet, 17:10-12, 2011) was used to filter for reads greater than 32 base pairs. Output files were re-checked for quality using FastQC. The latest human reference genome (GRCh38.p13) was downloaded from NCBI. Genome index files were generated using STAR (Cox et al. 2020, supra, and Dobin et al., Bioinformatics, 29:15-21, 2012). Paired end reads from fastq files were mapped to the genome for each condition. HTSeq was used to generate expression counts for each gene (Cox et al. 2020, supra; and Putri et al., Bioinformatics, 38:2943-2945, 2022). […] The disruption efficiency of the CRISPR/Cas9 GM-CSF knockout was determined using targeted sequencing through PCR and TIDE analysis (software available at tide.nki.nl) as described elsewhere (Sakemura et al. 2021, supra).
RNA sequencing of CART19 cells was then performed. […] Data were analyzed with the use of QIAGEN Ingenuity Pathway Analysis (IPA) (digitalinsights.qiagen.com/IPA; Krämer et al., Bioinformatics 30 (4): 523-530, 2014).

CN1CCN(Cc2ccc(Nc3ncc(Cl)c(Nc4ccccc4S(=O)(=O)N(C)C)n3)cc2)CC1 [TP-0903, Dubermatinib]
ABCG1 Expr Log Ratio: −0.301
ADORA2A Expr Log Ratio: 0.629
ADRA1B Expr Log Ratio: −0.268
AGPAT2 Expr Log Ratio: 0.051
ALDH2 Expr Log Ratio: −0.892
APP Expr Log Ratio: 0.132
ARHGAP5 Expr Log Ratio: 0.025
ARNT Expr Log Ratio: −0.009
ATF3 Expr Log Ratio: −0.209
ATF4 Expr Log Ratio: −0.52
BCAP31 Expr Log Ratio: 0.118
BCL3 Expr Log Ratio: 0.097
BCL6 Expr Log Ratio: 0.021
BMP7 Expr Log Ratio: −0.942
BMP10 Expr Log Ratio: −1.585
BTK Expr Log Ratio: −0.323
C3 Expr Log Ratio: 0.511
CALCA Expr Log Ratio: −1.865
CCND1 Expr Log Ratio: −0.129
CCR3 Expr Log Ratio: −0.728
CD2 Expr Log Ratio: 0.318
CD5 Expr Log Ratio: 0.33
CD28 Expr Log Ratio: 0.407
CD38 Expr Log Ratio: −0.087
CD40LG Expr Log Ratio: 0.131
CD44 Expr Log Ratio: 0.428
CD48 Expr Log Ratio: 0.067
CD274 Expr Log Ratio: −0.506
COMMD1 Expr Log Ratio: 0.174
DUSP10 Expr Log Ratio: 0.211
EBF1 Expr Log Ratio: −0.235
EDN1 Expr Log Ratio: −0.099
EIF2AK4 Expr Log Ratio: −0.2
EPX Expr Log Ratio: −0.176
ERBB2 Expr Log Ratio: −0.057
FHL2 Expr Log Ratio: 0.639
FMR1 Expr Log Ratio: 0.099
FYN Expr Log Ratio: 0.259
GAS5-AS1 Expr Log Ratio: −0.022
GNA14 Expr Log Ratio: −2.841
HAVCR1 Expr Log Ratio: −0.121
IGF1 Expr Log Ratio: −0.149
IGF1R Expr Log Ratio: −0.155
IKBKB Expr Log Ratio: −0.036
IKZF2 Expr Log Ratio: −0.318
IL4R Expr Log Ratio: 0.093
IL10 Expr Log Ratio: −0.008
IL15 Expr Log Ratio: 0.191
IL18 Expr Log Ratio: 0.03
IL21 Expr Log Ratio: −0.452
INSIG1 Expr Log Ratio: −0.836
IRF4 Expr Log Ratio: −0.587
ITGB2 Expr Log Ratio: 0.114
KDM1A Expr Log Ratio: 0.09
KRAS Expr Log Ratio: 0.11
LEF1 Expr Log Ratio: 0.105
LGALS3 Expr Log Ratio: −0.014
LTA Expr Log Ratio: 0.37
LTBR Expr Log Ratio: 0.08
MAPK3 Expr Log Ratio: −0.166
MAPK7 Expr Log Ratio: −0.017
MBP Expr Log Ratio: 0.105
MED1 Expr Log Ratio: −0.112
MIR-29 Expr Log Ratio: −3.808
MYB Expr Log Ratio: −0.03
MYDGF Expr Log Ratio: −0.06
NFATC1 Expr Log Ratio: 0.232
NFE2L2 Expr Log Ratio: 0.172
NFIL3 Expr Log Ratio: −0.13
NFKBIA Expr Log Ratio: 0.173
NPAT Expr Log Ratio: −0.021
NR4A2 Expr Log Ratio: 0.982
NREP Expr Log Ratio: −0.21
PAF1 Expr Log Ratio: 0.135
PDCD1 Expr Log Ratio: 0.967
POU2F1 Expr Log Ratio: −0.356
PRDM1 Expr Log Ratio: −0.006
PRKCZ Expr Log Ratio: 0.36
PTEN Expr Log Ratio: 1.201
PTPRJ Expr Log Ratio: 0.044
RAD21L1 Expr Log Ratio: 0.844
RAMP1 Expr Log Ratio: −0.296
RRP1B Expr Log Ratio: −0.087
RXRA Expr Log Ratio: −0.75
SATB2 Expr Log Ratio: −0.715
SIRT6 Expr Log Ratio: −0.028
SMAD2 Expr Log Ratio: −0.395
SMAD7 Expr Log Ratio: 0.057
SMC1B Expr Log Ratio: −0.146
SNCA Expr Log Ratio: 1.134
SORL1 Expr Log Ratio: 0.047
SPI1 Expr Log Ratio: −0.215
SREBF1 Expr Log Ratio: −0.191
SREBF2 Expr Log Ratio: −0.048
STAG3 Expr Log Ratio: −0.19
STARD7 Expr Log Ratio: −0.076
SUCNR1 Expr Log Ratio: −1.022
TEAD3 Expr Log Ratio: −0.396
TERT Expr Log Ratio: −0.599
TGFB1 Expr Log Ratio: −0.094
TGFB3 Expr Log Ratio: 0.178
TGFBR2 Expr Log Ratio: 0.18
TLR2 Expr Log Ratio: 0.013
TLR7 Expr Log Ratio: −1.275
TNFRSF4 Expr Log Ratio: 0.263
TNFSF15 Expr Log Ratio: 1.42
TPH1 Expr Log Ratio: 0.019
TRAF3 Expr Log Ratio: 0.022
WNT5B Expr Log Ratio: −0.491
YAP1 Expr Log Ratio: −0.546
upstream regulator ABCG1 Activation Z-Score: 1.387
upstream regulator ADORA2A Activation Z-Score: −0.245
upstream regulator AGPAT2 Activation Z-Score: 1
upstream regulator ALDH2 Activation Z-Score: 1.432
upstream regulator APP Activation Z-Score: −2.018
upstream regulator APP Predicted Activation State: inhibited
upstream regulator ARNT Activation Z-Score: −1.795
upstream regulator ATF3 Activation Z-Score: −1.227
upstream regulator ATF4 Activation Z-Score: −2.62
upstream regulator ATF4 Predicted Activation State: inhibited
upstream regulator BCAP31 Activation Z-Score: −0.968
upstream regulator BCL3 Activation Z-Score: −1.353
upstream regulator BCL6 Activation Z-Score: 0.949
upstream regulator BCR (COMPLEX) Activation Z-Score: −1.126
upstream regulator BMP7 Activation Z-Score: −1.089
upstream regulator BMP10 Activation Z-Score: −0.707
upstream regulator BTK Activation Z-Score: −1.091
upstream regulator C3 Activation Z-Score: −0.378
upstream regulator CALCA Activation Z-Score: 0.887
upstream regulator CCK Activation Z-Score: 0.437
upstream regulator CCL2 Activation Z-Score: −1.368
upstream regulator CCND1 Activation Z-Score: 0.042
upstream regulator CD5 Activation Z-Score: −1.732
upstream regulator CD28 Activation Z-Score: −1.369
upstream regulator CD38 Activation Z-Score: −1.353
upstream regulator CD40LG Activation Z-Score: −2.045
upstream regulator CD40LG Predicted Activation State: inhibited
upstream regulator CD44 Activation Z-Score: −1.835
upstream regulator CD274 Activation Z-Score: 0.478
upstream regulator CG Activation Z-Score: −0.872
upstream regulator COMMD1 Predicted Activation State: activated
upstream regulator DUSP10 Activation Z-Score: 0.392
upstream regulator EBF1 Activation Z-Score: −2.182
upstream regulator EBF1 Predicted Activation State: inhibited
upstream regulator EDN1 Activation Z-Score: −1.02
upstream regulator EIF2AK4 Activation Z-Score: −2.395
upstream regulator EIF2AK4 Predicted Activation State: inhibited
upstream regulator ERBB2 Activation Z-Score: −2.46
upstream regulator ERBB2 Predicted Activation State: inhibited
upstream regulator ERK1/2 Activation Z-Score: −0.915
upstream regulator ERK Activation Z-Score: −2.029
upstream regulator ERK Predicted Activation State: inhibited
upstream regulator FHL2 Activation Z-Score: −0.64
upstream regulator FMR1 Activation Z-Score: 1.976
upstream regulator FYN Activation Z-Score: −1.446
upstream regulator HAVCR1 Activation Z-Score: 0.104
upstream regulator HNF1A-AS1 Activation Z-Score: −2
upstream regulator HNF1A-AS1 Predicted Activation State: inhibited
upstream regulator ID3 Activation Z-Score: 1.671
upstream regulator IFN ALPHA/BETA Activation Z-Score: −1.195
upstream regulator IGF1 Activation Z-Score: −1.148
upstream regulator IGF1R Activation Z-Score: −0.652
upstream regulator IKBKB Activation Z-Score: −2.146
upstream regulator IKBKB Predicted Activation State: inhibited
upstream regulator IL1 Activation Z-Score: −1.785
upstream regulator IL4R Activation Z-Score: −0.187
upstream regulator IL10 Activation Z-Score: 1.633
upstream regulator IL12 (FAMILY) Activation Z-Score: 1.39
upstream regulator IL15 Activation Z-Score: −1.117
upstream regulator IL18 Activation Z-Score: −0.28
upstream regulator IL21 Activation Z-Score: 0.183
upstream regulator IL27RA Activation Z-Score: 2.207
upstream regulator IL27RA Predicted Activation State: activated
upstream regulator INSIG1 Activation Z-Score: 1.495
upstream regulator INSULIN Activation Z-Score: −1.452
upstream regulator IRF4 Activation Z-Score: 0.415
upstream regulator ITGB2 Activation Z-Score: −0.128
upstream regulator KCNIP3 Activation Z-Score: 0.378
upstream regulator KDM1A Activation Z-Score: 0.351
upstream regulator KRAS Activation Z-Score: −0.772
upstream regulator LEF1 Activation Z-Score: 0.367
upstream regulator LGALS3 Activation Z-Score: −0.747
upstream regulator LTA Activation Z-Score: −1.763
upstream regulator LTB Activation Z-Score: −1.246
upstream regulator LTBR Activation Z-Score: −1.664
upstream regulator MAPK3 Activation Z-Score: −0.896
upstream regulator MAPK7 Activation Z-Score: −0.64
upstream regulator MBP Activation Z-Score: 0.577
upstream regulator MED1 Activation Z-Score: −1.671
upstream regulator MIR-29 Activation Z-Score: 1.128
upstream regulator MIR-450A-5P (AND OTHER MIRNAS W/SEED UUUGCGA) Predicted Activation State: activated
upstream regulator MIRLET7 Activation Z-Score: 0
upstream regulator MLXIPL Predicted Activation State: inhibited
upstream regulator MTORC1 Activation Z-Score: −2.087
upstream regulator MTORC1 Predicted Activation State: inhibited
upstream regulator MYB Activation Z-Score: −1.742
upstream regulator NFAT (FAMILY) Activation Z-Score: −2.176
upstream regulator NFAT (FAMILY) Predicted Activation State: inhibited
upstream regulator NFATC1 Activation Z-Score: −1.4
upstream regulator NFE2L2 Activation Z-Score: −1.966
upstream regulator NFIL3 Activation Z-Score: −2.2
upstream regulator NFIL3 Predicted Activation State: inhibited
upstream regulator NFKBIA Activation Z-Score: −0.758
upstream regulator NR4A2 Activation Z-Score: 0.898
upstream regulator NREP Activation Z-Score: 0.218
upstream regulator NRG1 Activation Z-Score: −1.949
upstream regulator P38 MAPK Activation Z-Score: −2.405
upstream regulator P38 MAPK Predicted Activation State: inhibited
upstream regulator PDCD1 Activation Z-Score: 0.055
upstream regulator PDX1 Activation Z-Score: 0.24
upstream regulator POSTN Activation Z-Score: −1
upstream regulator PRDM1 Activation Z-Score: 0.122
upstream regulator PRKCZ Activation Z-Score: −0.167
upstream regulator PTEN Activation Z-Score: 0.449
upstream regulator PTPRJ Activation Z-Score: 0
upstream regulator RAS Activation Z-Score: −2.375
upstream regulator RAS Predicted Activation State: inhibited
upstream regulator RXRA Activation Z-Score: 1.069
upstream regulator SATB2 Activation Z-Score: −0.152
upstream regulator SIRT6 Activation Z-Score: 0.064
upstream regulator SMAD2 Activation Z-Score: −1.681
upstream regulator SMAD7 Activation Z-Score: −0.135
upstream regulator SNCA Activation Z-Score: −0.246
upstream regulator SORL1 Activation Z-Score: −2.714
upstream regulator SORL1 Predicted Activation State: inhibited
upstream regulator SPI1 Activation Z-Score: −1.174
upstream regulator SREBF1 Activation Z-Score: −3.191
